Counter-ions that a name gives are not always drawn. Peptide text beside a SMILES is read from it. * marks the point of attachment. pNA = O=[N+]([O-])c1ccc(N*)cc1
system: activated LAL (Limulus Amebocyte Lysate); experiment: Single-stage chromogenic LAL-test (hydrolysis of the chromogenic substrate by endotoxin-activated LAL, pNA read at 405 nm); assay type: biochemical, Limulus Potyphemus; settings: substrate concentration 2.2 mM in the reaction solution; endotoxin 0.1-1.2 EU/ml; Tris buffer pH 7.9; 37° C., 15 min; absorbance 405 nm
Experimental: A series of endotoxin containing solutions, making up a standard curve in the range 0.1-1.2 EU/ml, were assayed as described below using the different chromogenic substrates. The slopes of the resulting standard curves were compared and the slope for the substrate S-2423 was considered to be 100%.
A reagent (100 μl) consisting of a mixture of LAL (50% of the clotting concentration) and the chromogenic substrate (4.4 mM) in a Tris buffer of pH 7.9 is added to an equal volume of the sample. The resulting reaction (activation of the LAL and the subsequent hydrolyses of the chromogenic substrate)is carried out at 37° C. After 15 min. the reaction is terminated by the addition of 400 μl of acetic acid and the absorbance is read at 405 nm.
Substrate S-2423 (Ac-Ile-Glu-Gly-Arg-pNA.HCl) is taken as standard.

Structure (SMILES) | Relative activity (slope of endotoxin standard curve, S-2423 = 100%) [%]
CC[C@H](C)[C@H](NC(C)=O)C(=O)N[C@@H](CCC(=O)O)C(=O)NCC(=O)N[C@@H](CCCNC(=N)N)C(=O)Nc1ccc([N+](=O)[O-])cc1 [Substrate S-2423, Ac--Ile--Glu--Gly--Arg--pNA.HCl, reference compound] (Ac-IEGR-pNA) | 100
CC[C@H](C)[C@H](NC(C)=O)C(=O)N[C@@H](CCC(=O)O)C(=O)NCC(=O)N[C@@H](CCCCN)C(=O)Nc1ccc([N+](=O)[O-])cc1 [Substrate S-2834, Ac--Ile--Glu--Gly--Lys--pNA.HCl] (Ac-IEGK-pNA) | 126
CC[C@H](C)[C@H](NC(C)=O)C(=O)N[C@@H](CO)C(=O)NCC(=O)N[C@@H](CCCCN)C(=O)Nc1ccc([N+](=O)[O-])cc1 [Substrate S-2854, Ac--Ile--Ser--Gly--Lys--pNA.HCl] (Ac-ISGK-pNA) | 131
CC[C@H](C)[C@H](NC(C)=O)C(=O)N[C@@H](CCC(=O)O)C(=O)OCC(=O)N[C@@H](CCCNC(=N)N)C(=O)Nc1ccc([N+](=O)[O-])cc1 [Substrate S-2860, Ac--Ile--Glu-Glycolyl-Arg--pNA.HCl] | 142

From patent publication US5334703A, “Chromogenic substrate” (Chromonogenix AB, priority 1989, dated 1994)
